Laboratory results as given in patent publication US7900639B2, “Reconstituted tobaccos containing additive materials” (R. J. Reynolds Tobacco Company, priority 2003, dated 2011).

Legend:
[1] = room temperature
Procedure: The tobacco blend is extracted batch wise at about 130° F. using about 10 to about 15 parts tap water for each part tobacco material. Aqueous tobacco extract is separated from the water insoluble pulp using a centrifuge. The aqueous extract so provided has a soluble solids content of about 5%. The resulting extract is concentrated to a soluble solids content of about 22% to about 28% using a wiped film evaporator. The prepared extract is divided into two portions. To one portion, d-, l-alpha tocopherol is contacted with the resulting mixture (the test extract). […] In the other portion, no d-, l-alpha tocopherol is added, and as such a control extract is provided.
The concentrated liquid tobacco extracts with and without added d-, l-alpha tocopherol mixture are vigorously mixed or homogenized and allowed to set at room temperature conditions for five days.

bacteria = assay: Extracts tested for bacterial growth; conditions: test extract versus control extract without additive

In the case of Cc1c(C)c2c(c(C)c1O)CCC(C)(CCCC(C)CCCC(C)CCCC(C)C)O2 (stereo not drawn) [d-, l-alpha tocopherol], the “condition of aqueous tobacco extract containing the additive on storage” value ([1]; approximately 4% d-, l-alpha tocopherol on dried solids, five days, control began to ferment within two days) is reported as “remained unchanged”, the “separation of the additive in the tobacco extract” value ([1]; emulsified in test extract, five day test period) is reported as “no separation” and the “bacteria activity in the extract” value (bacteria) is reported as “significantly reduce”.
